Test results taken from patent US7838676B2, “Beta-secretase modulators and methods of use” (Amgen Inc., priority 2005, dated 2010).

tested on: Aβ40 in conditioned medium of APP containing cells; assay: BACE Cell-Based Assay (Aβ40 sandwich ELISA, HEK-293 cells stably expressing APP); conditions: Homo sapiens, HEK293, inhibition of Aβ 40 in conditioned media after 24 h
Protocol: The cell-based assay measures inhibition or reduction of Aβ40 in conditioned medium of test compound treated APP containing cells.
Cells stably expressing Amyloid Precursor Protein (APP) were plated at a density of 40K cells/well in 96 well plates (Costar). The cells were cultivated for 24 h at 37° C. and 5% CO2 in DMEM supplemented with 10% FBS. The test compounds were then added to cells in 10-point dose response concentrations with the starting concentration being either 100 μM or 10 μM. The compounds were diluted from stock solutions in DMSO and the final DMSO concentration of the test compounds on cells was 0.1%. After 24 h of incubation with the test compounds the supernatant conditioned media was collected and the Aβ 40 levels were determined using a sandwich ELISA. The IC50 of the compound was calculated from the percent of control or percent inhibition of Aβ 40 as a function of the concentration of the test compound.
The sandwich ELISA to detect Aβ 40 was performed in 96 well microtiter plates, which were pre-treated with goat anti-rabbit IgG (Pierce). The capture and detecting antibody pair that were used to detect Aβ 40 from cell supernatants were affinity purified pAb40 (Biosource) and biotinylated 6E10 (Signet Labs Inc.), respectively. The optimal concentration for the pAb40 antibody was 3 μg/ml in Superblock/TBS (Pierce) that was supplemented with 0.05% Tween 20 (Sigma). Optimal concentration for the detection antibody 6E10-biotinylated was 0.5 μg/ml in Superblock/TBS (Pierce) that had been supplemented with 2% normal goat serum and 2% normal mouse serum.
Cellular supernatants were incubated with the capture antibody for 3 h at 4° C., followed by 3 wash steps in TBS-tween (0.05%). The detecting antibody incubation was for 2 h at 4° C., again followed by the wash steps as described previously. The final readout of the ELISA is Time-Resolved Fluorescence (counts per minute) using Delfia reagents Streptavidin-Europium and Enhancement solutions (Perkin Elmer) and the Victor 2 multilabel counter (Perkin Elmer).

**Q.** How did the IC50 turn out when `CCc1ccc2c(c1)[C@@H](NC[C@@H](O)[C@H](Cc1ccccc1)NC(=O)c1cncnc1)CC1(CCC1)O2` [Example 19, N-((2S,3R)-4-((S)-6-ethyl-2,2-spirocyclobutylchroman-4-ylamino)-3-hydroxy-1-phenylbutan-2-yl)pyrimidine-5-carboxamide] was run?
**A.** The IC50 was no more than 5 µM.

**Q.** Which IC50 does the source give for `CCc1ccc2c(c1)[C@@H](NC[C@@H](O)[C@H](Cc1ccccc1)NC(=O)c1cc(N3CCCC3=O)ccc1OC)CC1(CCCC1)O2` [Example 30, N-((2S,3R)-4-((S)-6-ethyl-2,2-spirocyclopentylchroman-4-ylamino)-3-hydroxy-1-phenylbutan-2-yl)-2-methoxy-5-(2-oxopyrrolidin-1-yl)benzamide] here?
**A.** Its IC50 is no more than 5 µM.

**Q.** `CCc1ccc2c(c1)[C@@H](NC[C@@H](O)[C@H](Cc1ccccc1)NC(=O)c1cccc(-c3ccccn3)c1)CC1(CCCC1)O2` [Example 106] was tested. Which IC50 did it give?
**A.** The IC50 was no more than 5 µM.

**Q.** How did the IC50 turn out when `Cc1cnc2c(c1)[C@@H](NC[C@@H](O)[C@H](Cc1cc(F)cc(F)c1)NC(=O)c1ccc(N3CCCC3=O)c(F)c1)CC1(CCC1)C2` [Example 146, N-((1S,2R)-1-((3,5-difluorophenyl)methyl)-2-hydroxy-3-(((5′S)-3′-methyl-5′,8′-dihydro-6′H-spiro[cyclobutane-1,7′-quinolin]-5′-yl)amino)propyl)-3-fluoro-4-(2-oxo-1-pyrrolidinyl)benzamide] was run?
**A.** The IC50 was no more than 5 µM.

**Q.** `O=C(N[C@@H](Cc1ccccc1)[C@H](O)CN[C@H]1CC2(CCC2)Oc2ccc(Br)cc21)c1ccno1` [Example 162, N-((1S,2R)-3-(((4S)-6-bromo-3,4-dihydrospiro[chromene-2,1′-cyclobutan]-4-yl)amino)-2-hydroxy-1-(phenylmethyl)propyl)-5-isoxazolecarboxamide] was tested. Which IC50 did it give?
**A.** Its IC50 is no more than 5 µM.

**Q.** For `CCc1ccc2c(c1)[C@@H](NC[C@@H](O)[C@H](Cc1ccccc1)NC(=O)c1ccnc(N3CCCCC3)c1)CC1(CCCC1)O2` [Example 167, N-((2S,3R)-4-((S)-6-ethyl-2,2-spirocyclopentylchroman-4-ylamino)-3-hydroxy-1-phenylbutan-2-yl)-2-(piperidin-1-yl)isonicotinamide], which IC50 is on record?
**A.** Its IC50 is no more than 5 µM.

**Q.** With `CCc1ccc2c(c1)[C@@H](NC[C@@H](O)[C@H](Cc1ccccc1)NC(=O)c1ccnc(N3CCOCC3)c1)CC1(CCCC1)O2` [Example 169, N-((2S,3R)-4-((S)-6-ethyl-2,2-spirocyclopentylchroman-4-ylamino)-3-hydroxy-1-phenylbutan-2-yl)-2-morpholinoisonicotinamide] as the compound, how does the IC50 read?
**A.** The IC50 was no more than 5 µM.
